Source: a melting point compilation (Tetko et al.; mined from patent text by program, amines drawn as free bases though some values may be those of a salt)

Q: Which melting point does the source give for `COc1ccc(-c2[nH]nc3c2C(=O)c2c(NC(=O)Cc4ccc(NC(=O)CN(C)C)cc4)cccc2-3)cc1` here?
A: The melting point was greater than 300 °C.

Q: With `C#CCCC(=O)Oc1cc(-n2c(OC)nc(C(F)(F)C(F)(F)F)c(F)c2=O)c(F)cc1Cl` as the compound, how does the melting point read?
A: The melting point was 107 to 109 °C.

Q: With `CSc1c(O[C@@H]2CCC[C@H](N)C2)ccc2[nH]ncc12` (relative stereo) as the compound, how does the melting point read?
A: The melting point was 112 to 113 °C.

Q: For `CSc1nnc(-c2ccc(Cl)cc2)o1`, which melting point is on record?
A: Its melting point is 121 to 123 °C.

Q: Which melting point does the source give for `CCc1cc(C)c(Br)c(CC)c1-c1c(OC(=O)OC)c(C)nn(C)c1=O` here?
A: Its melting point is 113 to 115 °C.

Q: With `CC(C)(C)OC(=O)Nc1ccc(-c2c[nH]c(=O)cn2)cc1` as the compound, how does the melting point read?
A: The melting point was 267 to 269 °C.

Q: Which melting point does the source give for `Cc1c(CC(=O)OCCO)cc(-c2ccc(S(C)(=O)=O)cc2)n1-c1ccc(F)cc1` here?
A: Its melting point is 129 to 131 °C.

Q: With `CC(C)Oc1cccc(NC(=O)OCc2c(-c3ccccc3)c3cc(Cl)ccc3c(=O)n2C)c1` as the compound, how does the melting point read?
A: The melting point was 205 to 207 °C.

Q: For `CCc1ccc(Nc2nc3cc(NC(=O)c4ccc(OC)c(OC)c4)ccc3o2)cc1`, which melting point is on record?
A: Its melting point is greater than 250 °C.

Q: With `Cc1cc2cccc(OCCNCc3cccc(C4=CCCC4)c3)c2o1` as the compound, how does the melting point read?
A: Its melting point is 133 °C.

Q: For `Cc1c(C(=O)O)sc2c(Br)csc12`, which melting point is on record?
A: The melting point was 280 to 282 °C.

Q: With `NCCCN1CC=C(c2ccc(Cl)cc2)CC1` as the compound, how does the melting point read?
A: The melting point was 57 to 58 °C.

Q: With `COc1cc2c(cc1OC)-c1cc(Nc3ccc(C)cc3C)nc(=O)n1CC2` as the compound, how does the melting point read?
A: Its melting point is 239 to 241 °C.

Q: With `Cc1nnsc1C(=O)Nc1ccc(-n2nc(C3CC3)cc2C2CC2)cc1` as the compound, how does the melting point read?
A: Its melting point is 117 to 120 °C.

Q: For `Nc1nc(=O)n(-c2ccsc2)cc1F`, which melting point is on record?
A: Its melting point is 228 to 229 °C.

Q: Which melting point does the source give for `O=[N+]([O-])c1cc(S(=O)(=O)NC(CO)CO)sc1Cl` here?
A: The melting point was 132 °C.

Q: For `Cc1ccc(F)cc1C(=O)Nc1ccc(C(=O)N2CCc3cn[nH]c3-c3sccc32)cc1`, which melting point is on record?
A: Its melting point is 310 to 312 °C.

Q: For `O=C(NC1N=C(c2ccccc2F)c2ccccc2-n2cnnc21)OCc1ccccc1` (stereo not drawn), which melting point is on record?
A: The melting point was 123 °C.

Q: For `CCC(O)c1c(C)c(NC(=O)CC(C)(C)C)c(C)c2c1OCC2c1ccc(C(C)C)cc1` (stereo not drawn), which melting point is on record?
A: The melting point was 165 to 167 °C.

Q: With `CCOCCn1c(C)c(C2(c3ccc(N(C)C)cc3C)OC(=O)c3ccccc32)c2ccccc21` (stereo not drawn) as the compound, how does the melting point read?
A: Its melting point is 170 to 171 °C.

Q: With `CC12CCC3C(CCC4=CC(=O)CCC43C=O)C1CCC2O` (stereo not drawn) as the compound, how does the melting point read?
A: The melting point was 125 to 127 °C.

Q: Which melting point does the source give for `CC(=O)Oc1ccc2c(c1)CCC1C2CCC2(C)C(OC(C)=O)CCC12` (stereo not drawn) here?
A: The melting point was 128 to 129 °C.

Q: Which melting point does the source give for `Cn1nnc(-c2ccc3c(c2)S(=O)(=O)c2ccccc2C3=O)n1` here?
A: The melting point was 204 to 205 °C.

Q: Which melting point does the source give for `Cc1ccc(-c2cccc(/C=C/C(=O)Nc3ccc(CO)cc3)c2)cc1` here?
A: The melting point was 220 to 223 °C.

Q: With `CSc1ccc(C2C(=O)c3ccccc3C2=O)cc1` as the compound, how does the melting point read?
A: The melting point was 153 to 155 °C.

Q: For `Fc1ccc(-n2cc(OCCN3CCCCC3)c3cc(Cl)ccc32)cc1`, which melting point is on record?
A: Its melting point is 82 to 84 °C.

Q: For `Cc1cc(Cn2nnn(-c3cc(C(F)(F)F)cc(C(F)(F)F)c3)c2=O)ccc1N`, which melting point is on record?
A: The melting point was 129 to 130 °C.

Q: For `O=C1NCC(c2cccs2)SCC1N1C(=O)c2ccccc2C1=O` (stereo not drawn), which melting point is on record?
A: Its melting point is 183 to 184 °C.

Q: Which melting point does the source give for `COC(=O)P(=O)(OC)OC` here?
A: The melting point was 150 °C.

Q: Which melting point does the source give for `COC(=O)c1cc(O)c(N=Nc2ccccc2)c(O)c1` here?
A: Its melting point is 216 to 218 °C.

Q: With `CCN(CC)CCn1c(O)nc2cc(Cl)c(Cl)nc21` as the compound, how does the melting point read?
A: Its melting point is 137 to 139 °C.

Q: For `Clc1ccnc2[nH]c(CCc3ccccc3)cc12`, which melting point is on record?
A: Its melting point is 159 to 160 °C.

Q: For `O=C(O)c1ccc(-c2ccc(C(=O)O)cc2-c2nc3ccccc3[nH]2)c(-c2nc3ccccc3[nH]2)c1`, which melting point is on record?
A: The melting point was greater than 400 °C.

Q: For `CCOC(=O)C1=C(C)NC(C)=C(C(=O)OCC)C1c1ncccc1O`, which melting point is on record?
A: Its melting point is 238 to 239 °C.

Q: For `Nc1ccc(C(O)(C(F)(F)F)C(F)(F)F)cc1S`, which melting point is on record?
A: The melting point was 121 to 123 °C.

Q: With `Nc1nnc(C(=O)OCc2ccccc2)s1` as the compound, how does the melting point read?
A: Its melting point is 198 to 200 °C.

Q: With `CN(CCO)c1ccc([N+](=O)[O-])cn1` as the compound, how does the melting point read?
A: The melting point was 83 to 84 °C.

Q: For `O=C1c2c(c(=O)n3nc(-c4ccccc4)cc3n2Cc2ccccc2)CCN1C1CCCCC1`, which melting point is on record?
A: The melting point was 247 to 248 °C.

Q: With `CCOC(=O)c1cc(=O)c2c(OCC(O)COc3ccc(C(C)(C)C)cc3)cccc2o1` (stereo not drawn) as the compound, how does the melting point read?
A: The melting point was 99 to 102 °C.

Q: For `Cc1ccc(NC(=O)c2c(C)cccc2NC(=O)OC(C)(C)C)cc1`, which melting point is on record?
A: The melting point was 250 °C.

Q: With `CC(C)(C)OC(=O)N1CCN(c2cc(Cl)ccc2NC(=O)c2ccnc(Cl)c2)CC1` as the compound, how does the melting point read?
A: The melting point was 185 to 189 °C.

Q: For `N#CCc1ccccc1Sc1ccc(Cl)c(C(F)(F)F)c1`, which melting point is on record?
A: Its melting point is 69 to 70 °C.

Q: For `Cc1cc(C)nc(OC(C)C(=O)O)n1` (stereo not drawn), which melting point is on record?
A: The melting point was 117 °C.

Q: For `O=C1NC(=O)C2(CC(Br)c3ccccc32)N1` (stereo not drawn), which melting point is on record?
A: Its melting point is 58 to 65 °C.

Q: With `O=C1NCCc2[nH]c3c(Br)cccc3c21` as the compound, how does the melting point read?
A: Its melting point is 268 to 270 °C.

Q: Which melting point does the source give for `O=C(O)CCC=C(c1ccccc1)c1ccccc1` here?
A: Its melting point is 80 to 81.5 °C.

Q: Which melting point does the source give for `CC(=O)c1c(CO[N+](=O)[O-])n(C(C)=O)c(=O)n1C(C)=O` here?
A: The melting point was 135 to 136 °C.

Q: Which melting point does the source give for `COc1ccc(N2CCN(c3c(C)c(C)c4c(c3C)C(O)(C3CCCCC3)C(C)(C)O4)CC2)cc1` (stereo not drawn) here?
A: The melting point was 166 to 167 °C.
